Reference: PubChem BioAssay (NCI)
Where “and” joins values, the source holds several entries; their conditions need not be identical. Identical values can stand only once.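 Exposure lasted 48 hours, with cells grown in 96-well plates and compounds tested at five concentrations. Here, GI50 denotes the concentration required for 50% inhibition of growth. TGI denotes the concentration required for complete inhibition of growth.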

Tests used:
Experiment in all cases: NCI-60 cell line screen, 48 h
[1] = system: A549 NSCLC
[2] = system: SR leukemia
[3] = system: MDA-MB-435
[4] = system: SK-OV-3 ovarian
[5] = system: HOP-92 NSCLC
[6] = system: NCI/ADR-RES ovarian
[7] = system: M14 melanoma
[8] = system: SF-295 CNS
[9] = system: HOP-62 NSCLC
[10] = system: SK-MEL-28 melanoma
[11] = system: SF-268 CNS
[12] = system: COLO 205 colon
[13] = system: HL-60(TB) leukemia
[14] = system: SK-MEL-5 melanoma
[15] = system: T-47D breast
[16] = system: HCC-2998 colon
[17] = system: 786-0 renal
[18] = system: HS 578T breast
[19] = system: HCT-116 colon
[20] = system: NCI-H460 lung
[21] = system: MOLT-4 leukemia
[22] = system: NCI-H522 lung
[23] = system: OVCAR-5 ovarian
[24] = system: U251 CNS
[25] = system: SN12C renal
[26] = system: MALME-3M melanoma
[27] = system: CCRF-CEM leukemia
[28] = system: SNB-75 CNS
[29] = system: NCI-H226 lung
[30] = system: UACC-62 melanoma
[31] = system: MDA-N
[32] = system: HT29 colon
[33] = system: KM12 colon
[34] = system: BT-549 breast
[35] = system: DU-145 prostate
[36] = system: MCF7 breast
[37] = system: OVCAR-8 ovarian
[38] = system: UO-31 renal
[39] = system: ACHN renal
[40] = system: CAKI-1 renal
[41] = system: TK-10 renal
[42] = system: MDA-MB-231 breast
[43] = system: K-562 leukemia
[44] = system: EKVX NSCLC
[45] = system: IGROV1 ovarian
[46] = system: RXF 393 renal
[47] = system: SNB-19 CNS
[48] = system: A498 renal
[49] = system: OVCAR-4 ovarian
[50] = system: NCI-H23 lung
[51] = system: UACC-257 melanoma
[52] = system: SW-620 colon
[53] = system: SF-539 CNS
[54] = system: LOX IMVI melanoma
[55] = system: PC-3 prostate
[56] = system: OVCAR-3 ovarian
[57] = system: RPMI-8226 leukemia
[58] = system: HCT-15 colon
[59] = system: SK-MEL-2 melanoma
[60] = system: LXFL 529 NSCLC
[61] = system: HOP-18 NSCLC
[62] = system: DMS 273 small cell lung
[63] = system: DMS 114 small cell lung
[64] = system: SNB-78 CNS

O=C(O)/C=C/C(=O)Nc1cccc2c1-c1ccccc1C2=O
TGI [1]: > 100 µM
TGI [2]: > 57.8 µM
TGI [3]: 9.14 µM
TGI [4]: > 100 µM
TGI [5]: > 100 µM
TGI [6]: > 92.1 µM
TGI [7]: > 100 µM
TGI [8]: > 33.8 µM
TGI [9]: > 100 µM
TGI [10]: > 100 µM
TGI [11]: > 100 µM
TGI [12]: 36.1 µM
TGI [13]: 6.9 µM
TGI [14]: > 100 µM
TGI [15]: > 100 µM
TGI [16]: 71.8 µM
TGI [17]: > 100 µM
TGI [18]: 47.5 µM
TGI [19]: > 100 µM
TGI [20]: > 35.5 µM
TGI [21]: > 100 µM
TGI [22]: 26.3 µM
TGI [23]: > 100 µM
TGI [24]: > 57.5 µM
TGI [25]: > 100 µM
TGI [26]: > 100 µM
TGI [27]: > 28.3 µM
TGI [28]: > 58.4 µM
TGI [29]: > 100 µM
TGI [30]: > 100 µM
TGI [31]: 12.1 µM
TGI [32]: > 91.9 µM
TGI [33]: > 100 µM
TGI [34]: > 100 µM
TGI [35]: > 81.3 µM
TGI [36]: > 100 µM
TGI [37]: > 100 µM
TGI [38]: > 100 µM
TGI [39]: > 100 µM
TGI [40]: > 100 µM
TGI [41]: > 29.7 µM
TGI [42]: 81.3 µM
TGI [43]: > 64.1 µM
TGI [44]: > 100 µM
TGI [45]: > 100 µM
TGI [46]: > 55 µM
TGI [47]: > 100 µM
TGI [48]: > 100 µM
TGI [49]: > 100 µM
TGI [50]: > 100 µM
TGI [51]: > 100 µM
TGI [52]: > 100 µM
TGI [53]: 19.2 µM
TGI [54]: > 100 µM
TGI [55]: > 88.9 µM
TGI [56]: 5.78 µM
TGI [57]: 62.6 µM
TGI [58]: > 100 µM
TGI [59]: 32.9 µM

CCOc1ccccc1NC(=O)C(=O)C1C(=O)Nc2ccccc2S1=O (stereo not drawn)
TGI [1]: > 100 µM
TGI [4]: > 100 µM
TGI [60]: > 100 µM
TGI [7]: > 100 µM
TGI [10]: > 100 µM
TGI [61]: > 100 µM
TGI [11]: > 100 µM
TGI [13]: > 100 µM
TGI [16]: > 100 µM
TGI [17]: > 100 µM
TGI [19]: > 100 µM
TGI [20]: > 100 µM
TGI [21]: > 100 µM
TGI [22]: > 100 µM
TGI [24]: > 100 µM
TGI [26]: > 100 µM
TGI [27]: > 100 µM
TGI [62]: > 100 µM
TGI [38]: > 100 µM
TGI [43]: > 100 µM
TGI [46]: > 100 µM
TGI [63]: > 100 µM
TGI [64]: > 100 µM
TGI [56]: > 100 µM
TGI [57]: > 100 µM
TGI [58]: > 100 µM
TGI [59]: > 100 µM

O=c1cc(N2CCOCC2)oc2c(-c3ccccc3)cccc12
GI50 [1]: 6 µM
TGI [1]: > 72.8 µM and 36.7 µM
TGI [2]: > 60 µM and 46.6 µM
GI50 [3]: 4.23 µM
TGI [3]: 31.1 µM and 37.2 µM
GI50 [4]: 6.92 µM
TGI [4]: 62.4 µM and 60.9 µM
GI50 [5]: 3.74 µM
TGI [5]: > 100 µM and 78.5 µM
GI50 [6]: 6.35 µM
TGI [6]: 85.2 µM and 24.3 µM
GI50 [7]: 5.38 µM
TGI [7]: > 38.5 µM and 56 µM
GI50 [8]: 2.61 µM
TGI [8]: 27.8 µM and 44.7 µM
GI50 [9]: 5.41 µM
TGI [9]: > 100 µM
GI50 [10]: 6.57 µM
TGI [10]: > 100 µM
GI50 [11]: 3.59 µM
TGI [11]: 53 µM and 14.2 µM
TGI [12]: 36.7 µM and 30.1 µM
GI50 [13]: 3.38 µM
TGI [13]: 38.2 µM and > 100 µM
GI50 [14]: 9.35 µM
TGI [14]: 22 µM
GI50 [15]: 3.03 µM
TGI [15]: 48.7 µM and 8.31 µM
GI50 [16]: 5.61 µM
TGI [16]: 46.9 µM
GI50 [17]: 3.13 µM
TGI [17]: > 37.9 µM and 46.7 µM
GI50 [18]: 3.16 µM
TGI [18]: > 30.6 µM and 11.4 µM
GI50 [19]: 9.87 µM
TGI [19]: > 100 µM and 46.1 µM
GI50 [20]: 6.13 µM
TGI [20]: > 100 µM
GI50 [21]: 5.46 µM
TGI [21]: > 100 µM and 92.8 µM
GI50 [22]: 4.96 µM
TGI [22]: 23.2 µM and 19.3 µM
GI50 [23]: 5.17 µM
TGI [23]: > 100 µM and 63.8 µM
GI50 [24]: 11.1 µM
TGI [24]: > 100 µM
GI50 [25]: 2.93 µM
TGI [25]: > 100 µM
GI50 [26]: 4.46 µM
TGI [26]: > 41.4 µM and 5.6 µM
GI50 [27]: 8.59 µM
TGI [27]: > 100 µM
GI50 [28]: 1.91 µM
TGI [28]: 14.6 µM and 5.97 µM
TGI [29]: 50 µM and 50.6 µM
GI50 [30]: 3.19 µM
TGI [30]: 18.8 µM and 21.9 µM
TGI [31]: 50.3 µM
GI50 [32]: 5.27 µM
TGI [32]: 70.6 µM and 43.8 µM
GI50 [33]: 10.6 µM
TGI [33]: 44.9 µM and 28.8 µM
GI50 [34]: 1.79 µM
TGI [34]: > 19.8 µM and 76.2 µM
GI50 [35]: 6.73 µM
TGI [35]: > 100 µM
TGI [36]: > 57 µM and 16.1 µM
TGI [37]: > 80.1 µM and 29.1 µM
GI50 [38]: 1.39 µM
GI50 [39]: 4.25 µM
TGI [39]: > 100 µM
TGI [40]: 28.9 µM and 9.16 µM
GI50 [41]: 4.39 µM
TGI [41]: 40.3 µM and > 100 µM
GI50 [42]: 5.85 µM
TGI [42]: 97.3 µM and 19.6 µM
TGI [43]: > 100 µM and 79.7 µM
GI50 [44]: 5.22 µM
TGI [44]: > 71 µM and 23.2 µM
GI50 [45]: 3.65 µM
TGI [45]: > 34.4 µM and 12.3 µM
TGI [46]: 13.4 µM and 13.6 µM
TGI [47]: > 96.2 µM and 78.6 µM
GI50 [48]: 1.53 µM
TGI [48]: 7.54 µM and 13.9 µM
GI50 [49]: 3.5 µM
TGI [49]: > 61.9 µM and 75.5 µM
GI50 [50]: 9.08 µM
TGI [50]: > 100 µM
GI50 [51]: 9.06 µM
TGI [51]: 69.2 µM and 60.8 µM
GI50 [52]: 15.5 µM
TGI [52]: > 100 µM
GI50 [53]: 5.57 µM
TGI [53]: 31.6 µM and 29.8 µM
GI50 [54]: 4.34 µM
TGI [54]: > 68.3 µM and 18.4 µM
GI50 [55]: 2.96 µM
TGI [55]: > 100 µM
GI50 [56]: 4.48 µM
TGI [56]: 40.3 µM and 43 µM
GI50 [57]: 5.1 µM
TGI [57]: > 100 µM and 18.3 µM
GI50 [58]: 4.98 µM
TGI [58]: > 100 µM and 48.7 µM
GI50 [59]: 12.1 µM
TGI [59]: 38 µM and 36.9 µM
